Assay results: patent US7947726B2, “Non-steroidal ligands for the glucocorticoid receptor, and compositions thereof” (The Regents of the University of California, priority 2002, dated 2011)
Like-named read-outs stand apart in the source and are kept apart here.

Assays:
[1] = tested on: Coll A; experiment: Coll A repression; assay type: cell-based; details: for Emax: read-out: Repression Coll A % max repression; for EC50: read-out: Repression Coll A pot (EC50)
[2] = target: T1, glucocorticoid receptor (GR) (Homo sapiens, UniProt P04150); experiment: Glucocorticoid Receptor Competitor Assay Kit (Panvera) ligand binding; details: for GR binding RBA (dex = 100): Table 3; for GR binding RBA (dex = 100) / GR Binding RBA (dexamethasone = 100): relative binding affinity, dexamethasone = 100; for GR Binding RBA (dexamethasone = 100): Table 1
T1 construct: purchased Panvera Corp, Madison, Wis
T1 sequence (P04150 1-777): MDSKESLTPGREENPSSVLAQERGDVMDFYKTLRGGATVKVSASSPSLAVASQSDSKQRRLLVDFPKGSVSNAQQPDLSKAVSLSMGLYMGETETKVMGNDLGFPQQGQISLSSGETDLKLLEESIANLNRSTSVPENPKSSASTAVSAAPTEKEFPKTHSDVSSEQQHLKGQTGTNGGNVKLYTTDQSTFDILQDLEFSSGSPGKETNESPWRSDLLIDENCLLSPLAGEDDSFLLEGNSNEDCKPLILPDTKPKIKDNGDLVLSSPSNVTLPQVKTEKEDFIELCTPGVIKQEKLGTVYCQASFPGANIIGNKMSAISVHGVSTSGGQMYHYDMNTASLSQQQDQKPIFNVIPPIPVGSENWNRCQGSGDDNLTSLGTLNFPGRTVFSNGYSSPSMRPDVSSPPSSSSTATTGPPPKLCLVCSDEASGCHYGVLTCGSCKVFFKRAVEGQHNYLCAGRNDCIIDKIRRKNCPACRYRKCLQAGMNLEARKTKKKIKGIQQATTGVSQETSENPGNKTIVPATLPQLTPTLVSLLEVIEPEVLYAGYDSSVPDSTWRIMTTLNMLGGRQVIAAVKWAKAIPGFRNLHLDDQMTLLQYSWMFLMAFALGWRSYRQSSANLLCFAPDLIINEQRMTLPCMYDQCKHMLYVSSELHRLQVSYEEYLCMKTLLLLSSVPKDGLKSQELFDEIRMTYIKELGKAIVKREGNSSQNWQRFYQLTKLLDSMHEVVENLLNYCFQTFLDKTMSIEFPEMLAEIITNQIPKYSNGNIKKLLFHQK
Text: The Glucocorticoid Receptor Competitor Assay Kit (Panvera Corp, Madison, Wis.) was used for ligand binding studies. The recommended room temperature protocol was followed for all assayed ligands.

[3] = target: T2, GR (Homo sapiens, UniProt P04150); experiment: GRE (TAT3-Luc) activation luciferase assay in CV-1 cells transfected with GR; assay type: cell-based
T2 construct: expressed in transfected cells; host or cells: CV-1 cells, transient transfection (plasmid a gift of Keith Yamamoto, UCSF)
T2 sequence (P04150 1-777): T1 sequence (P04150 1-777)
Experimental: Cells were plated into tissue culture treated, 96 well flat bottom plates (25,000 cells/well), and incubated for 12 h at 37° C. Cells were then transfected using the Lipofectamine PLUS transfection reagent (Gibco BRL). DNA-lipid complexes of 5 ng GR, 50 ng TAT3-Luc, 7.5 ng β-galactosidase, 1 μL-well PLUS reagent and 0.67 μL-well lipofectamine in 50 μL/well serum free media were added to cells and incubated for 4 h at 37° C. Complexes were removed and hormones diluted in 5% charcoal-stripped FBS were added to the cells, which were then incubated for 24 hours at 37° C. Media was removed and the cells were washed with 100 μL Ca^+2, Mg^+2 free phosphate buffered saline (PBS). Lysis was achieved by adding 50 μL of Passive Lysis Buffer (Promega Corp, Madison, Wis.) and shaking the plate for 15 min. 15 μL of this lysate was then used to assay β-galactosidase activity (β-galactosidase enzyme assay system, Promega Corp., recommended procedures followed). The Luciferase Assay System (Promega Corp.) was used to assay luciferase activity. 100 μL of luciferase assay reagent was added rapidly to the plate and luminescence was measured for 10 ms/well on an Analyst AD Detection System (LJL Biosystems, Sunnyvale, Calif.).

[4] = target: T3, MR (Homo sapiens, UniProt P08235); experiment: MR activation (max fold activation); assay type: cell-based; details: Table 4
T3 sequence (P08235 1-984): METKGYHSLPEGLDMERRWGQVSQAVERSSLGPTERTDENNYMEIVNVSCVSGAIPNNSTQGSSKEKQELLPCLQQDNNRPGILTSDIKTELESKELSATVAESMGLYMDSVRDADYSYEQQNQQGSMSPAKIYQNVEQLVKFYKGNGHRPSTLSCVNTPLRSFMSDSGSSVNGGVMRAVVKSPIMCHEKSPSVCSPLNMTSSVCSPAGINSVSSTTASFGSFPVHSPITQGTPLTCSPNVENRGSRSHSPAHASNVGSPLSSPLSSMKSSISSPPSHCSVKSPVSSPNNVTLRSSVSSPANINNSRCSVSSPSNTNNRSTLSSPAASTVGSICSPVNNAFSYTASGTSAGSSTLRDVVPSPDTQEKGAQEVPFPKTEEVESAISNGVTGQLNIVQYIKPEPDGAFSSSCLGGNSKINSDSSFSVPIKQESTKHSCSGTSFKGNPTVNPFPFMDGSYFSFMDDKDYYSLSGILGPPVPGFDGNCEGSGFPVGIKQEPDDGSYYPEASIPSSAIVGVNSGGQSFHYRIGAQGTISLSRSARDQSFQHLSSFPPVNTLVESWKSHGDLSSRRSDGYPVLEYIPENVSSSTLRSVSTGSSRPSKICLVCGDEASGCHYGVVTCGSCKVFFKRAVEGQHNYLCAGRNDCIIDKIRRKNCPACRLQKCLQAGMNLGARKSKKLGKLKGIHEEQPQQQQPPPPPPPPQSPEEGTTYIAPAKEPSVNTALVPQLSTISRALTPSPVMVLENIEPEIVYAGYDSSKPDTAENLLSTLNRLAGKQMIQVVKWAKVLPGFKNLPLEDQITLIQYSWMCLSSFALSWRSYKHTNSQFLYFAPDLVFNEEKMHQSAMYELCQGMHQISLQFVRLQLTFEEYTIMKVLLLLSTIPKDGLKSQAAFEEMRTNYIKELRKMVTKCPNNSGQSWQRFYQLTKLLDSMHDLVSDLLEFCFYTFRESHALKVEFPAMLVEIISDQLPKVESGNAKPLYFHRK

[5] = target: T4, GR (Rattus norvegicus, UniProt P06536); experiment: AP-1 repression luciferase assay in U2OS cells stably transfected with rat GR; assay type: cell-based; details: Table 5, TPA-stimulated U2OS cells; for EC50: read-out: Repression AP-1 pot (EC50); for Emax: U2OS, 12 h, read-out: Repression AP-1 % max repression
T4 construct: expressed in transfected cells; gift of Keith Yamamoto
T4 sequence (P06536 1-795): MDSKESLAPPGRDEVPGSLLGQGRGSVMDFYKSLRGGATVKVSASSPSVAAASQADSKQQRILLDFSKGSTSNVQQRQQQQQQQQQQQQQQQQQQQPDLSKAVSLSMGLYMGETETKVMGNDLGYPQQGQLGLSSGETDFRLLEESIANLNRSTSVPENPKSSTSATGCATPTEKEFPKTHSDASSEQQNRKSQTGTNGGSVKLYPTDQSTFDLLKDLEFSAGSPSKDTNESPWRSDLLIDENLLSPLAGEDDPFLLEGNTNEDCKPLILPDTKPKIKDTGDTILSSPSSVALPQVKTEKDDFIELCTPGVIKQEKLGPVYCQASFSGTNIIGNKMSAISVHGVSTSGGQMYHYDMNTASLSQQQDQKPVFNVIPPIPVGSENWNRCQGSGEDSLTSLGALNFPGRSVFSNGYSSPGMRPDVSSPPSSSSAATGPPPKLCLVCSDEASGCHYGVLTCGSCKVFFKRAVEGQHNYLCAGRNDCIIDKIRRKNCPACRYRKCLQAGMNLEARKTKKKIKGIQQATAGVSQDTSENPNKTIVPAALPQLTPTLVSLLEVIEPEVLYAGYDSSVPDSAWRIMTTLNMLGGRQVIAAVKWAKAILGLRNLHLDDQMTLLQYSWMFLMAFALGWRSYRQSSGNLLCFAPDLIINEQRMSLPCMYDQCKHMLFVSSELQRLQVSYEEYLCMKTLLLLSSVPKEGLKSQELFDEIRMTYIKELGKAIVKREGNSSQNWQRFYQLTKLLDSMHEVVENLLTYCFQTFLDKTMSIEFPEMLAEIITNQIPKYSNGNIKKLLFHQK
Experimental: For API repression assays, U2OS cells stably transfected with rat GR were grown in similar media as for CV-1 cells with the exception of the FBS concentration, which was 10% and the only antibiotic was […]. Cells were plated and transfected in a similar fashion, except for plasmids, which in this case were 50 ng/well AP1-Luc and 10 ng/well β-galactosidase. Post-transfection, cells were incubated with either 50 ng/mL TPA (Phorbol 12-myristate 13-acetate), or 50 ng/mL TPA and various hormone dilutions in 10% charcoal treated FBS media. The cells were incubated for 12 h, and the lysis, β-galactosidase assay, and luciferase assay were performed as previously described.

[6] = Table 4, read-out: GR pot (EC50)
[7] = read-out: IC50 in a GR binding assay
[8] = Table 2, read-out: GR Binding (IC50)

CC12Cc3cnn(-c4ccc(F)cc4)c3C=C1CCCC2C(O)c1cc2ccccc2c2ccccc12 (centres unmarked) [Compound 259, [1-(4-Fluoro-phenyl)-4a-methyl-4,4a,5,6,7,8-hexahydro-1H-benzo[f]indazol-5-yl]-phenanthren-9-yl-methanol]
Emax ([1]; Table 5): 73% | EC50 ([1]; Table 5): 783 nM | GR binding RBA (dex = 100) [2]: 72 | EC50 [3, 6]: > 5000 nM

CC12Cc3cnn(-c4ccc(F)cc4)c3C=C1CCCC2=O (centres unmarked) [Compound 205, 1-(4-Fluoro-phenyl)-4a-methyl-1,4,4a,6,7,8-hexahydro-benzo[f]indazol-5-one]
IC50 [2, 7]: 436 nM

COCOC(c1c(C)cc(O)cc1C)C1CCCC2=Cc3c(cnn3-c3ccc(F)cc3)CC21C (centres unmarked) [Compound 232, 4-{[1-(4-Fluoro-phenyl)-4a-methyl-4,4a,5,6,7,8-hexahydro-1H-benzo[f]indazol-5-yl]-methoxymethoxy-methyl}-3,5-dimethyl-phenol]
GR Binding RBA (dexamethasone = 100) [2]: 26 | EC50 ([3]; Table 1, read-out: GR pot(EC50)): 82 nM

C[C@]12CCC(=O)C=C1CC[C@@H]1[C@@H]2[C@@H](O)C[C@]2(C=O)[C@@H](C(=O)CO)CC[C@@H]12 [Aldosterone, reference compound]
MR max fold activation [4]: 6.1 ± 1.5 | GRE activation max fold activation ([3]; Table 4, fold): 41 | EC50 [3, 6]: 765 nM

COc1ccc2[nH]c3c(c2c1)CCC1=Cc2c(cnn2-c2ccc(F)cc2)CC13C (centres unmarked) [Compound 265, 3-(4-fluoro-phenyl)-8-methoxy-11b-methyl-5,6,12-trihydro-indazolo[5,6-a]carbazole]
IC50 [2, 8]: 239 nM

Cc1cc(C(O)C2CCCC3=Cc4c(cnn4-c4ccc(F)cc4)CC32C)ccc1O (centres unmarked) [Compound 235, 4-{[1-(4-Fluoro-phenyl)-4a-methyl-4,4a,5,6,7,8-hexahydro-1H-benzo[f]indazol-5-yl]-hydroxy-methyl}-2-methyl-phenol]
EC50 [5]: 16.6 nM | Emax [5]: 74% | GR binding RBA (dex = 100) [2]: 110 | GRE activation max fold activation ([3]; Table 4, fold): 76 | EC50 [3, 6]: 81 nM

CC12Cc3cnn(-c4cccc(C#Cc5ccccc5)c4)c3C=C1CCCC2=O (centres unmarked) [Compound 261, 4a-Methyl-1-(3-phenylethynyl-phenyl)-1,4,4a,6,7,8-hexahydro-benzo[f]indazol-5-one]
IC50 [2, 7]: 174 nM

Cc1cc(O)cc(C)c1CC1CCCC2=Cc3c(cnn3-c3ccc(F)cc3)CC21C (centres unmarked) [Compound 230, 4-{[1-(4-Fluoro-phenyl)-4a-methyl-4,4a,5,6,7,8-hexahydro-1H-benzo[f]indazol-5-yl]-methyl}-3,5-dimethyl-phenol]
GR Binding RBA (dexamethasone = 100) [2]: 22

CC12Cc3cnn(-c4ccc(F)cc4)c3C=C1CCc1c2[nH]c2ccc(F)cc12 (centres unmarked) [Compound 267, 3-(4-fluoro-phenyl)-8-fluoro-11b-methyl-5,6,12-trihydro-indazolo[5,6-a]carbazole]
Emax ([1]; Table 2): 75% | EC50 ([1]; Table 2): 100 nM | IC50 [2, 8]: 130 nM | GRE Activation Max fold activation ([3]; Table 2, fold): 18

CC12Cc3cnn(-c4ccc(F)cc4)c3C=C1CCc1c2[nH]c2ccc(Br)cc12 (centres unmarked) [Compound 263, 3-(4-fluoro-phenyl)-8-bromo-11b-methyl-5,6,12-trihydro-indazolo[5,6-a]carbazole]
IC50 [2, 8]: 708 nM

Cc1cc(O)cc(C)c1C(=O)C1CCCC2=Cc3c(cnn3-c3ccc(F)cc3)CC21C (centres unmarked) [Compound 228, 4-{[1-(4-Fluoro-phenyl)-4a-methyl-4,4a,5,6,7,8-hexahydro-1H-benzo[f]indazol-5-yl]-keto-methyl}-3,5-dimethyl-phenol]
GR Binding RBA (dexamethasone = 100) [2]: 16

CC12Cc3cnn(-c4ccc(F)cc4)c3C=C1CCC(=Cc1c3ccccc3cc3ccccc13)C2=O (centres unmarked) [Compound 269, 6-Anthracen-9-ylmethylene-1-(4-fluoro-phenyl)-4a-methyl-1,4,4a,6,7,8-hexahydro-benzo[f]indazol-5-one]
EC50 ([1]; Table 2): > 5000 nM | IC50 [2, 8]: 43 nM | EC50 ([3]; Table 2, read-out: GRE Activation GR pot (EC50)): > 5000 nM

COc1cc(C(O)C2CCCC3=Cc4c(cnn4-c4ccc(F)cc4)CC32C)cc(OC)c1OC (centres unmarked) [Compound 223, [1-(4-Fluoro-phenyl)-4a-methyl-4,4a,5,6,7,8-hexahydro-1H-benzo[f]indazol-5-yl]-(3,4,5-trimethoxyphenyl)-methanol]
EC50 [5]: 6.7 nM | Emax [5]: 74% | GR binding RBA (dex = 100) [2]: 47 | GRE activation max fold activation ([3]; Table 4, fold): 32 ± 2 | EC50 [3, 6]: 143 ± 27 nM
